Measurements published in US6943278B2, “Transgenic Drosophila having a disrupted Parkin gene and exhibits reduced climbing ability” (GenExel, Inc., priority 2002, dated 2005).

How the values were obtained:
Format in all cases: in vivo, Drosophila
[1] = test system: Dpark^2 parkin mutant flies; assay: rescue of defective climbing response of Dpark^2 mutant flies; conditions: for % climbing abilities, Dpark2/Dpark2: Dpark2/Dpark2 flies fed 1 mM compound on dry yeast for 10 days, relative to unfed wild type control; for effect on climbing response (in words): Dpark^2 flies fed 1 mM compound for 10 days
Procedure: (§1) parkin mutant flies older than 3-4 days after eclosion moved extremely slowly or not at all, remaining on the bottom of the culture vials. To quantify the locomotor behavioral defects of parkin mutant flies, the climbing ability of the mutants was examined. To do so, fifteen flies were placed in a plastic vial, and gently tapped to the bottom of the vial. The number of flies at the top of the vial was counted after 18 seconds of climbing. Ten trials were performed for each time point. The trial numbers were then averaged, and the resulting mean was normalized by the mean value of 1-day-old wild type. These used as the climbing scores for each single group of flies on a particular day. The experiment was repeated five times, with independently derived transgenic lines. The climbing score for five repeated experiments was then averaged, and a group mean and standard error were obtained. As previously reported (Ganetzky and Flanagan, Exp. Gerontol., 13:189 (1978); Le Bourg and Lints, Gerontology 8:59 (1992); Feany and Bender, 2000; Pendleton et al., J. Pharmacol. Exp. Ther. 300:91 (2002)), wild type flies rapidly climb to the top of a vial when tapped to the bottom, and have a strong tendency to remain at the top. However, as the flies get older, they no longer climb to the top of the vial, in other words they lose climbing ability (Ganetzky and Flanagan, 1978; Le Bourg and Lints, 1992; Feany and Bender, 2000; Pendleton et al., 2002).
(§2) A compound was screened for its ability to rescue the defective climbing response of Dpark^1 and Dpark^2 mutants. Flies were reared and crossed on Caltech medium (Ashbumer, Drosophila, Cold Spring Harbor, N.Y.: Cold Spring Harbor Laboratory Press (1989)) at 25° C. Wild type or parkin mutant flies were fed either L-DOPA or D-DOPA for 10 days by placing dry yeast that was soaked with 0.3 mL of either 1 mM L-DOPA or 1 mM D-DOPA on the bottom of the vial.

[2] = test system: Dpark^1 parkin mutant flies; assay: rescue of defective climbing response of Dpark^1 mutant flies; conditions: for % climbing abilities, Dpark1/Dpark1: Dpark1/Dpark1 flies fed 1 mM compound on dry yeast for 10 days, relative to unfed wild type control; for effect on climbing response (in words): Dpark^1 flies fed 1 mM compound for 10 days
Procedure: as §1, §2

wild type flies = assay: climbing ability of wild type flies fed D- or L-dopa; conditions: for effect on climbing response (in words): wild type flies fed 1 mM compound for 10 days; for % climbing abilities, WT: wild type flies fed 1 mM compound on dry yeast for 10 days
Procedure: as §1, §2

| SMILES | % climbing abilities, Dpark2/Dpark2 [1] [%] | effect on climbing response (in words) [1] | % climbing abilities, Dpark1/Dpark1 [2] [%] | effect on climbing response (in words) [2] | effect on climbing response (in words) (wild type flies) | % climbing abilities, WT (wild type flies) [%] | % climbing abilities, Dpark2/Dpark2 ([1]; listed as L-DOPA) [%] | % climbing abilities, Dpark1/Dpark1 ([2]; listed as L-DOPA) [%] |
| --- | --- | --- | --- | --- | --- | --- | --- | --- |
| N[C@H](Cc1ccc(O)c(O)c1)C(=O)O [D-dopa, D-DOPA] | 37.75 ± 2.44 | not effective | 33.221 ± 1.87 | not effective | Neither L-DOPA nor D-DOPA was effective | 101.90 ± 2.72 | – | – |
| N[C@@H](Cc1ccc(O)c(O)c1)C(=O)O [L-dopa, L-DOPA] | 68.51 ± 10.09 | significantly restored the climbing response | 68.20 ± 6.06 | significantly restored the climbing response | Neither L-DOPA nor D-DOPA was effective | 100.59 ± 2.73 | ~70 | ~70 |
